Source: patent publication US4224332A, “1-Aza-[2,2,2]-bicyclooctanes and anti-depressant and anti-parkinsonian compositions thereof” (Pharmindustrie, priority 1978, dated 1980)
Entries after “also recorded” stand apart in the source; their conditions may differ. Like-named read-outs stand apart in the source and are kept apart here.

Tests used:
[1] = test system: uptake of the choline; assay: inhibition of the uptake of choline by synaptosomes of the rat's brain, striatum; type: biochemical; conditions: in vitro; for IC50: rat brain synaptosomes, striatum
From the text: (§1) The results are expressed by an inhibiting concentration IC50, which represents the dose of product in micromoles per liter reducing by 50% the uptake of the noradrenaline (NA), the dopamine (DA), the serotonine (5-HT), or the choline in the specific regions of the brain (hypothalamus,striatum, medulla+pons) where the corresponding neurons predominate.

[2] = test system: uptake of the dopamine (DA); assay: inhibition of the uptake of dopamine (DA) by synaptosomes of the rat's brain, striatum; type: biochemical; conditions: in vitro; for IC50: rat brain synaptosomes, striatum
From the text: as §1

[3] = test system: uptake of the noradrenaline (NA); assay: inhibition of the uptake of noradrenaline (NA) by synaptosomes of the rat's brain, hypothalamus; type: biochemical; conditions: in vitro; for IC50: rat brain synaptosomes, hypothalamus
From the text: as §1

[4] = test system: uptake of the serotonine (5-HT); assay: inhibition of the uptake of serotonine (5-HT) by synaptosomes of the rat's brain, medulla + pons; type: biochemical; conditions: in vitro; for IC50: rat brain synaptosomes, medulla + pons
From the text: as §1

[5] = acute toxicity, oral, male mouse CD1; conditions: in vivo, 3 days observation
From the text: The acute toxicities of the compounds of formula (I) have been determined on the male mouse CD1 (Charles River), the products being administered orally. The LD50 have been calculated, after 3 days observation, by the cumulative method of J. J. REED and H. MUENCH. (Amer. J. Hyg. 27, 493, 1938), which is relied upon herein for this purpose and the disclosure incorporated by reference.

[6] = test system: hypothermia caused by reserpine; assay: action on hypothermia caused by reserpine in mice; type: in vivo; conditions: Mus musculus, po, read-out: ED50 p.o. (dose exerting an antihypothermic effect equal to 50% of that caused by 15 mg/kg per os of imipramine)
Method: The results are expressed by an ED50 or dose of product, in mg/kg, capable of exerting an antihypothermic effect equal to 50% of the antihypothermic effect caused by 15 mg/kg (per os) of imipramine.

[7] = compared with imipramine and nomifensine

Row | Compound | inhibiting activity on the neuronal uptake of the choline, in words [1, 7] | IC50 [1] [µM] | inhibiting effect on uptake of the dopamine at the level of the striatum, in words [2, 7] | IC50 [2] [µM] | inhibiting effect on NA uptake, in words ([3]; compared with imipramine) | IC50 [3] [nM] | inhibiting effect on 5-HT uptake, in words ([4]; compared with imipramine) | IC50 [4] [nM] | LD50 at 72 h [5] [mg/kg] | ED50 [6] [mg/kg] | ED50 ([6]; mice, p.o., reserpine hypothermia) [mg/kg]
1 | c1ccc(C2CN3CCC2(c2ccccc2)CC3)cc1 (stereo not drawn) [Example 4, 3,4-diphenyl-1-aza-[2,2,2]-bicyclooctane] | active on all the four mediators used; also recorded: near to that of the imipramine; also recorded: exerts on the neuronal uptake of the choline an inhibiting activity | 25 | active on all the four mediators used; also recorded: very superior to that of imipramine; also recorded: comes near to the nomifensine | 0.6 | active on all the four mediators used; also recorded: near to that of the imipramine | 45 | active on all the four mediators used; also recorded: near to that of the imipramine | 300 | 200 | 2 | –
2 | CN(C)CCCN1c2ccccc2CCc2ccccc21 [Imipramine, reference compound] | – | 30 | – | 55 | – | 130 | – | 80 | – | – | 3
